Reference: BindingDB's records for doi:10.1124/jpet.103.049254 (Schering-Plough Research Institute, 2003)

Experiments:
Histamine H1 receptor = Histamine H1 receptor (Cavia porcellus, UniProt P31389)
Histamine H2 receptor = Histamine H2 receptor (Cavia porcellus, UniProt P47747)
Hrh3 protein = Hrh3 protein (Rattus norvegicus, UniProt Q5PPG3)
Nischarin = Nischarin (Rattus norvegicus, UniProt Q4G017)
Sequence of Nischarin (Q4G017 whole entry): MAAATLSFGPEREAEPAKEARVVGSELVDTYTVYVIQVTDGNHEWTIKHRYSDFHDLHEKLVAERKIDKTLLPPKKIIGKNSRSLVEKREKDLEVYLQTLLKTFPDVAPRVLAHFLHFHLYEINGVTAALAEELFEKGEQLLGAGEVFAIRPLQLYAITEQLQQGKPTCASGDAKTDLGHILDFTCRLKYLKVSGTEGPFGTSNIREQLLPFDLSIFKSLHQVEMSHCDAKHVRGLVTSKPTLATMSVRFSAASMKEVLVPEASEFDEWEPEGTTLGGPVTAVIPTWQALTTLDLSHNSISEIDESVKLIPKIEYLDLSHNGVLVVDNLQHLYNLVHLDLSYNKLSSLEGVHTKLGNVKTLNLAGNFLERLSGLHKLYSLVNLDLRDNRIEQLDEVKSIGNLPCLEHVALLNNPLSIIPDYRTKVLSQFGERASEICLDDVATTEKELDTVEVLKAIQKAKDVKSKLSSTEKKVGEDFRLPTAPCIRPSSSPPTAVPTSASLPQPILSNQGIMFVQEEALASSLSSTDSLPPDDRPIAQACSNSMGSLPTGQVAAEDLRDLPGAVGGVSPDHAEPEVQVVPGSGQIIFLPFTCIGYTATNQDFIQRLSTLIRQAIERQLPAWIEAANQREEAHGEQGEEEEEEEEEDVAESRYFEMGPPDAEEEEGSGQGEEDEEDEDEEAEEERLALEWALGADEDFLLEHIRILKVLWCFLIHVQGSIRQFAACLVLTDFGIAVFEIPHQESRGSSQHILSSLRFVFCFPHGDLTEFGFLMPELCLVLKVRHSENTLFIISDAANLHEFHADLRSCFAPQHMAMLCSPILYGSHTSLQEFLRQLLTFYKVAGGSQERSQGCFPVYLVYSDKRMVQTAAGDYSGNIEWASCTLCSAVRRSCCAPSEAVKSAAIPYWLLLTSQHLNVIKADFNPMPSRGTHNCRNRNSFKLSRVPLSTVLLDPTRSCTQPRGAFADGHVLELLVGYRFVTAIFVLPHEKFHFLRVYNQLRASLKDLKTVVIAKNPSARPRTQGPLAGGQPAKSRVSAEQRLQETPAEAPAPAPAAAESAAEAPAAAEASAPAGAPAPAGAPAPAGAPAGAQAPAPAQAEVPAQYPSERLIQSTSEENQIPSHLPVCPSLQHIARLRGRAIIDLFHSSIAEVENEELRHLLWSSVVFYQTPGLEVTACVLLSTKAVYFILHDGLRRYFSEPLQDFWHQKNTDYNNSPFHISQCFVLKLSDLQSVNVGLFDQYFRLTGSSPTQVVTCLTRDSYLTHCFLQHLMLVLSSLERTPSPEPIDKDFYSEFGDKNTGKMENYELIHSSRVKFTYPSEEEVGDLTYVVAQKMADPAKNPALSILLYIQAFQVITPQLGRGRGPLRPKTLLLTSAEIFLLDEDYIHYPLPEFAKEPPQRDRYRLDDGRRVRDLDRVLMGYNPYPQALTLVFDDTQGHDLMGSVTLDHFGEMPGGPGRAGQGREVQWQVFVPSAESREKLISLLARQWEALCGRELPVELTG

Sequence of Histamine H1 receptor (P31389 whole entry): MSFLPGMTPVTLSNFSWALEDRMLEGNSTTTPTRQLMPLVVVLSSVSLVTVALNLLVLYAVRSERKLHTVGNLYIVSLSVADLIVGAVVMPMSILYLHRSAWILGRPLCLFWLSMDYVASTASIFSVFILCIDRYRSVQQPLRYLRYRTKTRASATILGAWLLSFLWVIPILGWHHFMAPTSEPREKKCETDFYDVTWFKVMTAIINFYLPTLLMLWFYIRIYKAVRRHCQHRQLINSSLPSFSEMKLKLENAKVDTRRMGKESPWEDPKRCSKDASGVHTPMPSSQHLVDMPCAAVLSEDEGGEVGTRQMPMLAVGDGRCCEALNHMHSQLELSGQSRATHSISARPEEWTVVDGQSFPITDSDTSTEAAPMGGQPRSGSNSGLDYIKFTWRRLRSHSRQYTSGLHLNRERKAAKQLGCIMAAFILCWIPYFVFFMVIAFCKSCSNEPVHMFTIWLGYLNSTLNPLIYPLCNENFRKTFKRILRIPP
Sequence of Hrh3 protein (Q5PPG3 whole entry): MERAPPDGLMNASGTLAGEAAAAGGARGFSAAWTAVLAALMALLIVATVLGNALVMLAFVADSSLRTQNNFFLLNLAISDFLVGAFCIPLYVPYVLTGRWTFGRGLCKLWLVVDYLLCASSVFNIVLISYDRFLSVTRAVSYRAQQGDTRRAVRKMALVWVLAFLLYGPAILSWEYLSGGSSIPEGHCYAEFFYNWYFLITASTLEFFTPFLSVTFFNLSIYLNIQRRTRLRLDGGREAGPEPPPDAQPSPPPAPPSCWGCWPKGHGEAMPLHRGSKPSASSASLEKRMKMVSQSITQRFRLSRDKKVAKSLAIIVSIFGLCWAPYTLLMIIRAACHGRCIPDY
Sequence of Histamine H2 receptor (P47747 whole entry): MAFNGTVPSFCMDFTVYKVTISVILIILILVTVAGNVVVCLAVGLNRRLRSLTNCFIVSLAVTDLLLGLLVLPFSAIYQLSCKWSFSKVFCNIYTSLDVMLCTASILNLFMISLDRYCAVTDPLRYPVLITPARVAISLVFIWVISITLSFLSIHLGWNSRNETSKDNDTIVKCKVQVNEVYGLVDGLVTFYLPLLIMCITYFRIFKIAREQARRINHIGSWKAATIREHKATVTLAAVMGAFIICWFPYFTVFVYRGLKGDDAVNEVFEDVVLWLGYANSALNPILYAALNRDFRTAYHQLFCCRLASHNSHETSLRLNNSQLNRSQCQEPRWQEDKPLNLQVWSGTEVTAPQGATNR

- Ki (Histamine H1 receptor): 1000 nM
- Ki (Histamine H2 receptor): 1000 nM
- Ki (Hrh3 protein): 1.9 nM
- Ki (Nischarin): 155 nM
Structure (SMILES): O=C(NCc1ccc(Cc2c[nH]cn2)cc1)Nc1cc(Cl)cc(Cl)c1
